# Data: the SangsterLogP compilation
# Experiment: method code SF-AS, from DOI: 10.1021/jm00305a054, PMID: 5812219
row,SMILES,logP
1,CC(C)(C)C(=O)NC(=O)C1CCC1,0.53
2,CCCCCCCC(=O)NC(=O)C1CCC1,0.85
3,O=CNC(=O)C1CCC1,-0.7
4,CC(=O)NC(=O)C1CCC1,-0.4
5,CC(C)C(=O)NC(=O)C1CCC1,0.26
6,CCCC(=O)NC(=O)C1CCC1,0.41
7,CCCCCC(=O)NC(=O)C1CCC1,0.89
8,CCCCC(=O)NC(=O)C1CCC1,0.75
9,CC(C)CC(=O)NC(=O)C1CCC1,0.48
10,CCCCCCCCCCCC(=O)NC(=O)C1CCC1,1.28
